Consider nine molecules from publication PMC9395382 (2022).

The subject of test [1] is dsDNA (DNA, duplex) CGCGGCGTACAGTGATCTACCATGCCCTGG/CCAGGGCATGGTAGATCACTGTACGCCGCG
The test is described as follows: fluorescence titration, modified McGhee-von Hippel fit. To be noted: Na+ (10 mM sodium phosphate), pH 7.0, dye 2 μM, DNA in bp, per base.

For test [2], the system named is d(GC)10 (DNA, duplex) GCGCGCGCGCGCGCGCGCGC
The test is described as follows: fluorescent indicator displacement. The settings on record: Na+ (10 mM sodium phosphate); pH 7.0, 25 °C; EtBr displaced; DNA 20 μM bp; dye 0.5–50 μM.

Test [3] has as its system d(AT)10 (DNA, duplex) ATATATATATATATATATAT
Nature of the test: fluorescent indicator displacement. The settings on record: Na+ (10 mM sodium phosphate); pH 7.0, 25 °C; DAPI displaced; DNA 20 μM bp; dye 0.5–50 μM.

Test [4] relates to dsDNA (DNA, duplex) CGCGGCGTACAGTGATCTACCATGCCCTGG/CCAGGGCATGGTAGATCACTGTACGCCGCG
Nature of the test: fluorescence enhancement. The settings on record: Na+ (10 mM sodium phosphate), pH 7.0, 25 °C, dye 2 μM, DNA 1 μM.

Molecules are shown by their SMILES.

In turn, `CCN(CC)c1ccc(/C=C/c2cc[n+](C)c3ccccc23)c(OCCCC[N+](C)(C)C)c1` gave a Kb in test [1] (n = 2.1 bp per dye) of 245000 M⁻¹. Besides, the binding result in test [2] and in test [3] was “yes” in each case.
In test [1] (n = 2.8 bp per dye), `CCN(CC)c1ccc(/C=C/c2cc[n+](C)c3ccccc23)cc1` yielded a Kb of 70000 M⁻¹. Moreover, the binding entry in test [2] and in test [3] was “yes” each time.
`CCN(CC)c1ccc(/C=C/c2cc[n+](C)cc2)c(OCCCC[N+](C)(C)C)c1` had a Kb in test [1] (n = 4.0 bp per dye) of 141000 M⁻¹. Further, the binding result in test [3] was “yes”.
For the molecule `CCN(CC)c1ccc(/C=C/c2cc[n+](C)cc2)c(OCCC[N+](C)(C)C)c1`, in test [4] (F/F0 54.8), the binding result is “yes”.
`CCN(CC)c1ccc(/C=C/c2cc[n+](C)cc2)c(OCC[N+](C)(C)C)c1`: the binding entry in test [4] (F/F0 60.5) was “yes”.
As to `CCN(CC)c1ccc(/C=C/c2cc[n+](C)cc2)cc1`, the Kb in test [1] (n = 4.4 bp per dye) came to 10000 M⁻¹. In test [3], the binding entry is listed as “yes”.
`CCN(CC)c1ccc(/C=C/c2sc3ccccc3[n+]2C)c(OCCCC[N+](C)(C)C)c1` came in with a Kb in test [1] (n = 2.5 bp per dye) of 121000 M⁻¹. Further, the binding result in test [2] and in test [3] was “yes” each time.
In turn, `CCN(CC)c1ccc(/C=C/c2sc3ccccc3[n+]2C)cc1` returned a Kb in test [1] (n = 2.5 bp per dye) of 35000 M⁻¹. Moreover, the binding result in test [2] and in test [3] was “yes” in each case.
`COc1ccc(/C=C/c2sc3ccccc3[n+]2C)c(OCCCC[N+](C)(C)C)c1`: the binding result in test [2], in test [4] (F/F0 10.9) and in test [3] was “yes” each time.
